Earlier results, collected in patent US20090098202A1, “Extended Release Formulation” (BOEHRINGER INGELHEIM INTERNATIONAL GMBH, priority 2006, published 2009).
Structures can show the parent of a compound that is named as a salt.

How the values were obtained:
[1] = in the elderly
[2] = not given; remark: listed apart in the source

stability in solution (in solution, light) | stability in the solid state (solid state) | elimination half-life (t1/2[h]) [1] [h] | solubility in buffer media ([2]; between pH 2 and pH 7.4) | Water solubility ([2]; water) | Structure (SMILES)
light sensitive | very stable | 12 | – | – | CCCN[C@H]1CCc2nc(N)sc2C1 [Pramipexole, (S)-2-Amino-4,5,6,7-tetrahydro-6-(propylamino)benzothiazole]
– | – | – | above 10 mg/ml | more than 20 mg/ml | CCCN[C@H]1CCc2nc(N)sc2C1 [Pramipexole dihydrochloride monohydrate, pramipexole dihydrochloride monohydrate]
